Experimental data published in patent US20070203209A1, “Useful indole compounds” (priority 2005, published 2007).

System: ovalbumin-induced eosinophil induction (eosinophils in BAL fluid)
Test: Rat Ovalbumin Model (ovalbumin-induced airway cell proliferation and inflammation)
Type: in vivo, Brown Norway rats
Details: ability to prevent ovalbumin-induced eosinophil induction (percentage of eosinophils in BAL fluid); test compounds dosed orally at 5 mg/kg twice daily, days 5-12; samples 24 hours after last OVA challenge
Procedure: Complete protocol details can be found in Eynott et al. (2003. J. Pharmacol. Ther. 304:22-29). Briefly, Brown Norway rats are sensitized on days 1, 2, and 3 with intraperitoneal (i.p.) injections of lmg ovalbumin (OVA) and 100 mg Al(OH)3 in 1 mL 0.9% NaCl saline. They are then exposed to either 0.9% NaCl saline or 1% OVA aerosol every 3rd day (days 6, 9, & 12) for 30 minutes. 2 mg/kg dexamethasone is used as a positive control and is dosed i.p. once a day on days 4, 5, 6, 9, & 12. Vehicle (15% β-cyclodextrins in DMSO) and test compounds are dosed orally twice a day on days 5-12. On challenge days, all animals are treated 1 hour prior to OVA allergen exposure and, if required for twice a day treatment, ˜4-8 hours after allergen exposure. Samples are collected 24 hours after the last OVA challenge. For sample collection, rats are anaesthetized by administration of 10 mg/kg xylazine and 60 mg/kg ketamine intraperitoneally. Once the rats were fully anesthetized, blood is collected for serum via the retro-orbital route. The rats are subsequently perfused by injecting 30 mL PBS through the right ventricle of the heart after the abdominal aorta is severed. A tracheostomy is then performed and bronchoalveolar lavage fluid (BAL) is collected through five 5 mL rinses using Hank's Balanced Salt Solution, which was kept on ice. Airway inflammatory cell accumulation and proliferation of cells are measured through the BAL fluid collection and subsequent cell counts. Cytospin slides are prepared and eosinophil % are determined by counting ˜400 cells per slide. The test compounds are dosed at 5 mg/kg twice daily. Activity is scored based on the ability of the test compound to prevent ovalbumin-induced eosinophil induction (as determined by percentage of eosinophils in BAL fluid).

`COc1cc2c(CC(=O)O)c(C)n(Cc3cc(Cl)cc(Cl)c3)c2cc1Cl` [[6-chloro-1-(3,5-dichlorobenzyl)-5-methoxy-2-methyl-1H-indol-3-yl]acetic acid] was tested, and the “Activity (P < 0.05)” value was “no”.

In the case of `COc1cc2c(CC(=O)O)c(C)n(Cc3nc4ccccc4s3)c2cc1Cl` [[1-(1,3-benzothiazol-2-ylmethyl)-6-chloro-5-methoxy-2-methyl-1H-indol-3-yl]acetic acid], the “Activity (P < 0.05)” value is reported as “no”.

`COc1cc2c(CC(=O)O)c(C)n(Cc3cccc(Cl)c3)c2cc1Cl` [[6-chloro-1-(3-chlorobenzyl)-5-methoxy-2-methyl-1H-indol-3-yl]acetic acid] was tested, and the “Activity (P < 0.05)” value was “no”.

With `Cc1c(CC(=O)O)c2cc(F)c(Cl)cc2n1Cc1cccc(OC(F)(F)F)c1` [{6-chloro-5-fluoro-2-methyl-1-[3-(trifluoromethoxy)benzyl]-1H-indol-3-yl}acetic acid] the “Activity (P < 0.05)” value was “no”.

With `Cc1c(CC(=O)O)c2c(Cl)cc(Cl)cc2n1Cc1cccc(OC(F)(F)F)c1` [{4,6-dichloro-2-methyl-1-[3-(trifluoromethoxy)benzyl]-1H-indol-3-yl}acetic acid] the “Activity (P < 0.05)” value was “no”.

With `COc1cc2c(CC(=O)O)c(C)n(Cc3cccc(C(F)(F)F)c3)c2cc1Cl` [{6-chloro-5-methoxy-2-methyl-1-[3-(trifluoromethyl)benzyl]-1H-indol-3-yl}acetic acid] the “Activity (P < 0.05)” value was “no”.

For `Cc1cc2c(CC(=O)O)c(C)n(Cc3nc4ccccc4s3)c2cc1Cl` [[1-(1,3-benzothiazol-2-ylmethyl)-6-chloro-2,5-dimethyl-1H-indol-3-yl]acetic acid], the “Activity (P < 0.05)” value was “no”.

In the case of `Cc1cc2c(CC(=O)O)c(C)n(Cc3cccc(C(F)(F)F)c3)c2cc1Cl` [{6-chloro-2,5-dimethyl-1-[3-(trifluoromethyl)benzyl]-1H-indol-3-yl}acetic acid], the “Activity (P < 0.05)” value is reported as “no”.

In the case of `Cc1c(CC(=O)O)c2cc(Cl)c(Cl)cc2n1Cc1cccc(OC(F)(F)F)c1` [{5,6-dichloro-2-methyl-1-[3-(trifluoromethoxy)benzyl]-1H-indol-3-yl}acetic acid], the “Activity (P < 0.05)” value is reported as “no”.

With `COc1cc2c(CC(=O)O)c(C)n(Cc3cccc(OC(F)(F)F)c3)c2cc1Cl` [{6-chloro-5-methoxy-2-methyl-1-[3-(trifluoromethoxy)benzyl]-1H-indol-3-yl}acetic acid] the “Activity (P < 0.05)” value was “yes”.

In the case of `Cc1c(CC(=O)O)c2cc(F)c(Cl)cc2n1Cc1nc2ccccc2s1` [[1-(1,3-benzothiazol-2-ylmethyl)-6-chloro-5-fluoro-2-methyl-1H-indol-3-yl]acetic acid], the “Activity (P < 0.05)” value is reported as “no”.

For `Cc1cc2c(CC(=O)O)c(C)n(Cc3cccc(OC(F)(F)F)c3)c2cc1Cl` [{6-chloro-2,5-dimethyl-1-[3-(trifluoromethoxy)benzyl]-1H-indol-3-yl}acetic acid], the “Activity (P < 0.05)” value was “yes”.

For `COc1cc2c(CC(=O)O)c(C)n(Cc3cccc(Br)c3)c2cc1Cl` [[1-(3-bromobenzyl)-6-chloro-5-methoxy-2-methyl-1H-indol-3-yl]acetic acid], the “Activity (P < 0.05)” value was “no”.
